Results from the OPERA property sets (Mansouri et al. 2018).

For CCn1nnnc1Oc1ccc(NC(=O)N(C)C)cc1Cl, the logP was 1.5. For CNC(=O)N(C)C(=O)Nc1cc(S(=O)(=O)C(C)C)ccc1F, the logP was 1.87. Work on CNC(=O)N(C)C(=O)Nc1cc(-c2ccccc2)ccc1F yielded a logP of 3.78. CN(C)C(=O)Nc1ccc(Oc2nnnn2C(C)(C)C)c(Cl)c1 gave a logP of 2.25. For Cc1ccccc1C1OCC2ON=C(c3ccccc3)C2CO1 (stereo unspecified), the logP was 2.72. With CNC(=O)N(C)C(=O)Nc1cc([N+](=O)[O-])ccc1F the logP was 2.3. CCCCCCCCn1nnc(Oc2ccc(NC(=O)N(C)C)cc2)n1 showed a logP of 4.4. Work on CN(C)C(=O)Nc1ccc(Oc2nnnn2C(C)(C)C)cc1 yielded a logP of 1.65. CCC(CC)c1ccc(F)c(NC(=O)N(C)C(=O)NC)c1 gave a logP of 4.46. Molecule CCn1nnc(Oc2ccc(NC(=O)N(C)C)cc2)n1 has a logP of 1.1. Work on CNC(=O)N(C)C(=O)Nc1cc(OC(C)C)ccc1F yielded a logP of 3.08. c1ccc(C2=NOC3COC(c4ccccc4)OCC23)cc1 (stereo unspecified) showed a logP of 3.42. C#CCn1nnc(Oc2ccc(NC(=O)N(C)C)cc2)n1 gave a logP of 1.65. With CN(C)C(=O)Nc1ccc(Oc2nnn(Cc3ccccc3)n2)cc1 the logP was 2.25. With CNC(=O)N(C)C(=O)Nc1cc(F)ccc1F the logP was 2.4. For CN(C)C(=O)Nc1ccc(Oc2nnn(CCC#N)n2)cc1, the logP was 0.28. Work on CN(C)C(=O)Nc1ccc(Oc2nnnn2Cc2ccccc2)cc1 yielded a logP of 1.7. CNC(=O)N(C)C(=O)Nc1cc(I)ccc1F showed a logP of 3.58. CN(C)C(=O)Nc1ccc(Oc2nnn(C)n2)cc1 gave a logP of 0.63. With CN(C)C(=O)Nc1ccc(Oc2nnn(C3CCCCC3)n2)cc1 the logP was 2.67. With CC(C)n1nnc(Oc2ccc(NC(=O)N(C)C)cc2)n1 the logP was 1.45. C#CCn1nnnc1Oc1ccc(NC(=O)N(C)C)cc1 gave a logP of 1. CNC(=O)N(C)C(=O)Nc1ccccc1F showed a logP of 2.12. Fc1ccccc1C1OCC2ON=C(c3ccccc3)C2CO1 (stereo unspecified) gave a logP of 2.35. For CNC(=O)N(C)C(=O)Nc1cc(C(C)=O)ccc1F, the logP was 1.82. Molecule CNC(=O)N(C)C(=O)Nc1cc(OC)ccc1F has a logP of 2.14. CNC(=O)N(C)C(=O)Nc1cc(C(C)C)ccc1F gave a logP of 3.53. Work on C=CCn1nnc(Oc2ccc(NC(=O)N(C)C)cc2)n1 yielded a logP of 1.65. Molecule CCOC(=O)Cn1nnnc1Oc1ccc(NC(=O)N(C)C)cc1 has a logP of 0.7. In the case of CCCCCCCCn1nnnc1Oc1ccc(NC(=O)N(C)C)cc1, the logP is reported as 3.96. Molecule CNC(=O)N(C)C(=O)Nc1cc(Cc2ccccc2)ccc1F has a logP of 3.9. CNC(=O)N(C)C(=O)Nc1cc(C(=O)OC)ccc1F showed a logP of 2.28. With CNC(=O)N(C)C(=O)Nc1cc(C(C)(C)C)ccc1F the logP was 3.96. For CCc1ccc(F)c(NC(=O)N(C)C(=O)NC)c1, the logP was 3.23. For CNC(=O)N(C)C(=O)Nc1cc(C2CCCCC2)ccc1F, the logP was 4.58. CN(C)C(=O)Nc1ccc(Oc2nnn(C(C)(C)C)n2)cc1 gave a logP of 2.08.
